Laboratory results from PubChem BioAssay AID248 (DTP/NCI, 2004).
“And” between values parts separate entries of the source, which are not always exact repeats. Identical values can stand only once. Inconclusive results and toxic doses are left out.

Tested on: L1210 leukemia ip in BDF1 mice, survival T/C
Assay: NCI In Vivo Anticancer Drug Screen. Data for tumor model L1210 Leukemia (intraperitoneal) in B6D2F1 (BDF1) mice
Conditions: endpoint: mean survival time, higher = longer survival
Method in brief: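 In this screen, tumor-bearing mice given compound are compared to those given vehicle, and their survival values are reported as a treated-to-control quotient.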

[1] = dose: 100.0 mg/kg/injection, schedule: Q01DX001 (ip), vehicle: saline
[2] = dose: 200.0 mg/kg/injection, schedule: Q01DX001 (ip), vehicle: saline
[3] = dose: 400.0 mg/kg/injection, schedule: Q01DX001 (ip), vehicle: saline
[4] = dose: 25.0 mg/kg/injection, schedule: Q04DX003 (ip), vehicle: saline with Tween-80
[5] = dose: 100.0 mg/kg/injection, schedule: Q01DX009 (ip), vehicle: Klucel (hydroxypropylcellulose) (HPC)
[6] = dose: 100.0 mg/kg/injection, schedule: Q04DX003 (ip), vehicle: Klucel (hydroxypropylcellulose) (HPC)
[7] = dose: 200.0 mg/kg/injection, schedule: Q01DX009 (ip), vehicle: Klucel (hydroxypropylcellulose) (HPC)
[8] = dose: 200.0 mg/kg/injection, schedule: Q04DX003 (ip), vehicle: Klucel (hydroxypropylcellulose) (HPC)
[9] = dose: 400.0 mg/kg/injection, schedule: Q04DX003 (ip), vehicle: Klucel (hydroxypropylcellulose) (HPC)
[10] = dose: 100.0 mg/kg/injection, schedule: Q01DX009 (ip), vehicle: saline with Tween-80
[11] = dose: 200.0 mg/kg/injection, schedule: Q01DX009 (ip), vehicle: saline with Tween-80
[12] = dose: 100.0 mg/kg/injection, schedule: Q01DX001 (ip), vehicle: carboxymethylcellulose (CMC)
[13] = dose: 200.0 mg/kg/injection, schedule: Q01DX001 (ip), vehicle: carboxymethylcellulose (CMC)
[14] = dose: 400.0 mg/kg/injection, schedule: Q01DX001 (ip), vehicle: carboxymethylcellulose (CMC)
[15] = dose: 50.0 mg/kg/injection, schedule: Q01DX009 (ip), vehicle: Klucel (hydroxypropylcellulose) (HPC)
[16] = dose: 100.0 mg/kg/injection, schedule: Q04DX003 (ip), vehicle: saline
[17] = dose: 100.0 mg/kg/injection, schedule: Q04DX003 (ip), vehicle: saline with Tween-80
[18] = dose: 200.0 mg/kg/injection, schedule: Q04DX003 (ip), vehicle: saline with Tween-80
[19] = dose: 400.0 mg/kg/injection, schedule: Q04DX003 (ip), vehicle: saline with Tween-80
[20] = dose: 100.0 mg/kg/injection, schedule: Q04DX002 (ip), vehicle: Klucel (hydroxypropylcellulose) (HPC)
[21] = dose: 200.0 mg/kg/injection, schedule: Q04DX002 (ip), vehicle: Klucel (hydroxypropylcellulose) (HPC)

## CC(=O)OCC1OC(COC(C)=O)(c2ccc(C)cc2)C(OC(C)=O)C1OC(C)=O (stereo not given)
dose: 50.0 mg/kg/injection, schedule: Q01DX001 (ip), vehicle: saline
  T/C: 97 % of control
[1]
  T/C: 103 % of control
[2]
  T/C: 94 % of control
[3]
  T/C: 100 % of control

## CC(C)(N)CCC(C)(C)NCCCN
dose: 100.0 mg/kg/injection, schedule: Q01DX009 (ip), vehicle: water
  T/C: 95 % of control
dose: 100.0 mg/kg/injection, schedule: Q04DX003 (ip), vehicle: water
  T/C: 100 % of control
dose: 200.0 mg/kg/injection, schedule: Q01DX009 (ip), vehicle: water
  T/C: 98 % of control
dose: 200.0 mg/kg/injection, schedule: Q04DX003 (ip), vehicle: water
  T/C: 106 % of control
dose: 400.0 mg/kg/injection, schedule: Q04DX003 (ip), vehicle: water
  T/C: 97 % of control

## CS(=O)(=O)OCCN(CCOS(C)(=O)=O)c1ccc(C=Nc2ccc(C(=O)O)c(O)c2)cc1
dose: 6.25 mg/kg/injection, schedule: Q04DX003 (ip), vehicle: saline with Tween-80
  T/C: 117 % of control
dose: 12.0 mg/kg/injection, schedule: Q01DX009 (ip), vehicle: saline with Tween-80
  T/C: 168 % of control
dose: 16.5 mg/kg/injection, schedule: Q04DX003 (ip), vehicle: saline with Tween-80
  T/C: 112 % of control
dose: 18.0 mg/kg/injection, schedule: Q01DX009 (ip), vehicle: saline with Tween-80
  T/C: 170 % of control
[4]
  T/C: 121 % of control
dose: 37.5 mg/kg/injection, schedule: Q04DX003 (ip), vehicle: saline with Tween-80
  T/C: 113 % of control

## CCC1CN2CCc3cc(OC)c(OC)cc3C2CC1CC1c2cc(OC)c(OC)cc2CCN1C(=O)CNC(=O)OC(C)(C)C (stereo not given)
[1]
  T/C: 97 % of control
[2]
  T/C: 101 % of control
[3]
  T/C: 109 % of control

## COc1ccc(CNC(=O)NCCCl)cc1OC
[5]
  T/C: 102 % of control
[6]
  T/C: 115 % of control
[7]
  T/C: 103 % of control
[8]
  T/C: 113 % of control
[9]
  T/C: 101 % of control

## COc1cc(/C=C(/C#N)C(N)=O)cc(OC)c1OC
[10]
  T/C: 93 % of control
dose: 100.0 mg/kg/injection, schedule: Q04DX002 (ip), vehicle: saline with Tween-80
  T/C: 97 % of control
[11]
  T/C: 93 % of control
dose: 200.0 mg/kg/injection, schedule: Q04DX002 (ip), vehicle: saline with Tween-80
  T/C: 93 % of control
dose: 400.0 mg/kg/injection, schedule: Q01DX009 (ip), vehicle: saline with Tween-80
  T/C: 95 % of control
dose: 400.0 mg/kg/injection, schedule: Q04DX002 (ip), vehicle: saline with Tween-80
  T/C: 97 % of control

## CCCC(C(=O)OCCN1CCCC12CCCCC2)C1CCCC1 (stereo not given)
dose: 13.0 mg/kg/injection, schedule: Q01DX Z (ip), vehicle: methylcellulose (MC)
  T/C: 92 % of control
dose: 20.0 mg/kg/injection, schedule: Q01DX Z (ip), vehicle: methylcellulose (MC)
  T/C: 91 % of control
dose: 30.0 mg/kg/injection, schedule: Q01DX Z (ip), vehicle: methylcellulose (MC)
  T/C: 88 % of control

## Cc1nnc(NS(=O)(=O)c2ccc(N=Nc3c(N)n(C)c(=O)n(C)c3=O)cc2)s1
[12]
  T/C: 101 % of control
[13]
  T/C: 95 % of control
[14]
  T/C: 89 % of control

## CC/C=C(\C)C1(CC)C(=O)NC(=S)NC1=O
dose: 75.0 mg/kg/injection, schedule: Q01DX001 (ip), vehicle: carboxymethylcellulose (CMC)
  T/C: 89 % of control

## COc1ccc(NC(=O)Nc2cc([N+](=O)[O-])ccc2F)cc1
[6]
  T/C: 89 % of control
[8]
  T/C: 89 % of control
[9]
  T/C: 88 % of control

## O=C(N/N=C/c1ccccc1F)c1ccc(Cl)cc1
dose: 50.0 mg/kg/injection, schedule: Q01DX009 (ip), vehicle: saline with Tween-80
  T/C: 96 % of control
[10]
  T/C: 96 % of control
[11]
  T/C: 96 % of control

## O=[N+]([O-])/C=C/c1c(Cl)cccc1Cl
dose: 6.25 mg/kg/injection, schedule: Q01DX005 (ip), vehicle: other
  T/C: 108 % of control
dose: 12.5 mg/kg/injection, schedule: Q01DX005 (ip), vehicle: other
  T/C: 106 % of control
dose: 25.0 mg/kg/injection, schedule: Q01DX005 (ip), vehicle: other
  T/C: 93 % of control
dose: 50.0 mg/kg/injection, schedule: Q01DX005 (ip), vehicle: saline with Tween-80
  T/C: 101 % of control
[15]
  T/C: 95 % of control
[5]
  T/C: 93 % of control
[6]
  T/C: 94 % of control
[8]
  T/C: 100 % of control
[9]
  T/C: 103 % of control

## Cn1cnc2c(C#N)c(C#N)nn2c1=O
dose: 50.0 mg/kg/injection, schedule: Q01DX001 (ip), vehicle: carboxymethylcellulose (CMC)
  T/C: 93 % of control
[12]
  T/C: 90 % of control
[13]
  T/C: 93 % of control

## C[N+]1(C)N=C([O-])C=C1c1ccccc1
[16]
  T/C: 111 % of control
dose: 200.0 mg/kg/injection, schedule: Q04DX003 (ip), vehicle: saline
  T/C: 104 % of control
dose: 400.0 mg/kg/injection, schedule: Q04DX003 (ip), vehicle: saline
  T/C: 102 % of control

## Nc1ccc(OCc2ccc(C(=O)Nc3cccc(S(=O)(=O)F)c3)cc2)c(Cl)c1
[6]
  T/C: 100 % of control
[8]
  T/C: 108 % of control
[9]
  T/C: 96 % of control

## Cc1ccc(S(=O)(=O)NC(=O)NCc2ccco2)cc1
[6]
  T/C: 94 % of control
[8]
  T/C: 86 % of control
[9]
  T/C: 89 % of control

## O=c1[nH]c(=S)n2ncnc2[nH]1
[17]
  T/C: 109 % of control
[18]
  T/C: 102 % of control
[19]
  T/C: 95 % of control

## CCCCCCCCCCCCSC(=N)N
dose: 12.5 mg/kg/injection, schedule: Q01DX009 (ip), vehicle: acetone
  T/C: 103 % of control
dose: 12.5 mg/kg/injection, schedule: Q04DX003 (ip), vehicle: saline with Tween-80
  T/C: 98 % of control
dose: 25.0 mg/kg/injection, schedule: Q01DX009 (ip), vehicle: acetone
  T/C: 95 % of control
[4]
  T/C: 100 % of control
dose: 25.0 mg/kg/injection, schedule: Q04DX003 (ip), vehicle: saline
  T/C: 104 % of control
dose: 35.0 mg/kg/injection, schedule: Q04DX003 (ip), vehicle: saline
  T/C: 89 % of control
dose: 50.0 mg/kg/injection, schedule: Q04DX003 (ip), vehicle: saline with Tween-80
  T/C: 95 % of control
dose: 50.0 mg/kg/injection, schedule: Q04DX003 (ip), vehicle: saline
  T/C: 91 % of control
dose: 75.0 mg/kg/injection, schedule: Q04DX003 (ip), vehicle: saline
  T/C: 89 % of control
[16]
  T/C: 94 % of control and 95 % of control
dose: 115.0 mg/kg/injection, schedule: Q04DX003 (ip), vehicle: saline
  T/C: 97 % of control

## CCC(S)C(=O)Nc1ccccc1 (stereo not given)
[17]
  T/C: 107 % of control
[18]
  T/C: 90 % of control
[19]
  T/C: 91 % of control

## CCCCCCC(=O)N1CCCC(C)C1 (stereo not given)
[20]
  T/C: 98 % of control
[21]
  T/C: 106 % of control

## O=C(O)CCNc1ccccc1C(=O)O
[12]
  T/C: 100 % of control
[13]
  T/C: 96 % of control
[14]
  T/C: 100 % of control

## CCCC(C)C(=O)Nc1cccc(OC(=O)N(C)C)c1 (stereo not given)
[17]
  T/C: 95 % of control
[18]
  T/C: 96 % of control
[19]
  T/C: 93 % of control

## Cc1ccc(C)c(NC(=O)Oc2ccc(F)cc2Cl)c1
[15]
  T/C: 91 % of control
[5]
  T/C: 90 % of control
[6]
  T/C: 94 % of control
[7]
  T/C: 87 % of control
[8]
  T/C: 105 % of control

## O=C(Nc1ccccc1C(F)(F)F)OCCN1CCNC1=S
dose: 100.0 mg/kg/injection, schedule: Q01DX001 (ip), vehicle: Klucel (hydroxypropylcellulose) (HPC)
  T/C: 106 % of control
[5]
  T/C: 96 % of control and 103 % of control
[20]
  T/C: 94 % of control and 96 % of control
[6]
  T/C: 101 % of control
dose: 200.0 mg/kg/injection, schedule: Q01DX001 (ip), vehicle: Klucel (hydroxypropylcellulose) (HPC)
  T/C: 103 % of control
[7]
  T/C: 98 % of control and 100 % of control
[21]
  T/C: 95 % of control and 111 % of control
[8]
  T/C: 106 % of control
dose: 400.0 mg/kg/injection, schedule: Q01DX001 (ip), vehicle: Klucel (hydroxypropylcellulose) (HPC)
  T/C: 104 % of control
dose: 400.0 mg/kg/injection, schedule: Q01DX009 (ip), vehicle: Klucel (hydroxypropylcellulose) (HPC)
  T/C: 95 % of control and 100 % of control
dose: 400.0 mg/kg/injection, schedule: Q04DX002 (ip), vehicle: Klucel (hydroxypropylcellulose) (HPC)
  T/C: 94 % of control and 104 % of control
[9]
  T/C: 89 % of control
